Assay results published in patent US20060258729A1, “Antibacterial pyrazole carboxylic acid hydrazides” (priority 2002, published 2006).
Values after ≈ are worked out from the molar mass of the structure shown. “Also recorded” adds a separate entry of the source.

How the values were obtained:
[1] = tested on: Bacillus subtilis strain BD54; test: Inhibition of bacterial growth (MIC), Bs; type: cell-based; conditions: 16 to 18 hours, 37° C.; for MIC: read-out: Minimum Inhibitory Concentration for Bacterial Growth, Bs
Method: (§1) Each compound was assayed against a panel of a strain of Bacillus subtilis, of strains of antibiotic-resistant and sensitive Enterococcus and Staphylococcus species, and of a strain of the Gram-negative bacterium Escherichia coli. Compounds were dissolved in DMSO at 100× the desired highest concentration and added to one well of a 96-well microassay plate. Two-fold serial drug dilutions were made across the plate in DMSO to yield 11 concentrations (usually 80-0.078 μg/mL) plus an untreated control. Drugs were then transferred to fresh plates using 1.5 μL per well. Log phase cultures were diluted to yield a concentration of 1×10^5 colony forming units/mL in either LB or BHI medium and transferred to the plates containing drug for a final volume of 150 μL. Each well, including the DMSO controls, contained a final concentration of 1% DMSO. Plates were incubated with shaking at 37° C. for 16 to 18 hours. Cell growth was determined by measuring optical density (570 nm, 1 cm path length) in a microplate reader. MIC (minimum inhibitory concentration) is equivalent to the lowest concentration at which growth is not observed. The bacterial strains and MIC determinations have been well characterized and are described elsewhere (Tarantino et al., Antimicrob. Agents Chemother., 43: 1982-1987 (1999); Daly et al., Antimicrob. Agents Chemother., 44: 2217-2221 (2000)).

B. subtilis pol IIIC [2] = molecular target: T1, B. subtilis pol IIIC (Bacillus subtilis, UniProt P13267); test: DNA polymerase assay, B. subtilis pol IIIC; type: biochemical; conditions: for inhibition at 80 µg/mL: read-out: Percent Enzymatic Inhibition B. subtilis pol IIIC
T1 construct: made in house
T1 sequence (P13267 whole entry): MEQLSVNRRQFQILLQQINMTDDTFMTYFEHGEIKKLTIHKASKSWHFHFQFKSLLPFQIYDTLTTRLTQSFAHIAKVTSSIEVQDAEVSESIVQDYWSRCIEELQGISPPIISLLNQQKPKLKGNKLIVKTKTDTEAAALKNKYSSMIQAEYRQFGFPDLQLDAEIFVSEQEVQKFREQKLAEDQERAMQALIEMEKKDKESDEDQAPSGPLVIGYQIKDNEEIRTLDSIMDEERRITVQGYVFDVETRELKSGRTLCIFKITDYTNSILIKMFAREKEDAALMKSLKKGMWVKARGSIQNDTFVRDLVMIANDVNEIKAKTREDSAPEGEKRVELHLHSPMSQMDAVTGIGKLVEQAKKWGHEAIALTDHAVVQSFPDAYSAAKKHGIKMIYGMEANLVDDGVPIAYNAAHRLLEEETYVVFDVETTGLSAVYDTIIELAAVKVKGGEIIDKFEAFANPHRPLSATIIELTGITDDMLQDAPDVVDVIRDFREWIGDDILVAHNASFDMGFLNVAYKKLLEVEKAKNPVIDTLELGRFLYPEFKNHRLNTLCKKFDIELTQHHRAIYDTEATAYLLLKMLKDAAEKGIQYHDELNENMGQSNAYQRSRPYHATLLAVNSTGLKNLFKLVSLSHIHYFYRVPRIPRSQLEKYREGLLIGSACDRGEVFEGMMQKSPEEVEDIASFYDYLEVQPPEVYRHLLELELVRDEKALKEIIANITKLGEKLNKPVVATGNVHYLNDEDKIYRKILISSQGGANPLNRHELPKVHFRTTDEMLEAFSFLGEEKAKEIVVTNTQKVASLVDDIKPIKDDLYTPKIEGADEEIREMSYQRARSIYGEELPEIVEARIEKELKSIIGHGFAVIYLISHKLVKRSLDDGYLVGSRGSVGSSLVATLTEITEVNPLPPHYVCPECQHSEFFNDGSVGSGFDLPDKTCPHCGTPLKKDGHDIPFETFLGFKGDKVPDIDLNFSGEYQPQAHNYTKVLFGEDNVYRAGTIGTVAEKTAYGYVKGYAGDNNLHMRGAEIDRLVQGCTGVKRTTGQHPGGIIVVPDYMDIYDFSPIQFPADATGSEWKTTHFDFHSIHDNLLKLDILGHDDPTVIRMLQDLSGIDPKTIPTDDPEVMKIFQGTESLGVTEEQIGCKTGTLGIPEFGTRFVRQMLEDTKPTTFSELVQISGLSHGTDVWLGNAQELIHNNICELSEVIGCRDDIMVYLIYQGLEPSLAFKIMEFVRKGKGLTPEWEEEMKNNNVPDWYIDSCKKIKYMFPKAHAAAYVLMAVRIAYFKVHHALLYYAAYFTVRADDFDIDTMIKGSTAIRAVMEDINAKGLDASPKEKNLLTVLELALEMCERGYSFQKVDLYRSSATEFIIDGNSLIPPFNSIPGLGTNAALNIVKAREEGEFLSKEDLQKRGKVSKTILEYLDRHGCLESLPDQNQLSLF
Method: Recombinant, purified pol IIIC and pol IIIE from Bacillus subtilis were obtained using known methods (Hammond et al., Gene 98: 29-36 (1991), regarding pol IIIC; Barnes et al., J. Bacteriol. 184, 3834-3838 (2002), regarding pol IIIE). Recombinant, purified pol IIIE from Escherichia coli was obtained from a commercial source (Enzyco, Denver, Colo.). The enzyme assays were performed in 96-well plate format using the same assay mix for all three enzymes. […] Dilutions of compounds were added to the plate in 1% DMSO (1 μL/well). Assays were initiated by the addition of 0.025 to 0.06 units of enzyme (1 unit is the amount required to incorporate 250 pmoles of [^3H] dTMP in a standard assay), incubated for 10 min at 30° C. and terminated by the addition of 200 μL of cold 10% trichloroacetic acid, 10 mM sodium pyrophosphate. Precipitated labeled DNA was collected on glass fiber filter plates that had been pre-wet with ice cold 1 M HCl, 100 mM sodium pyrophosphate. The plates were washed with the HCl solution followed by ice cold 90% ethanol and then dried and counted in a liquid scintillation counter. […] In addition, percent inhibition values are calculated as the percent reduction in the activity of a DMSO (diluent) control.

[3] = tested on: methicillin-resistant S. aureus strain 1094; test: Inhibition of bacterial growth (MIC), MRSA; type: cell-based, Staphylococcus aureus; conditions: 16 to 18 hours, 37° C.; for MIC: Staphylococcus aureus, MRSA, read-out: Minimum Inhibitory Concentration for Bacterial Growth, MRSA
Method: as §1

S. aureus Smith strain = test: Inhibition of bacterial growth (MIC), Sm; type: cell-based, Staphylococcus aureus; conditions: 16 to 18 hours, 37° C.; for MIC: Staphylococcus aureus, read-out: Minimum Inhibitory Concentration for Bacterial Growth, Sm
Method: as §1

test strains of bacteria = test: Inhibition of bacterial growth, whole panel of test strains; type: cell-based
Method: as §1

[4] = tested on: vancomycin-resistant Enterococcus strain B42762; test: Inhibition of bacterial growth (MIC), VRE; type: cell-based; conditions: 16 to 18 hours, 37° C.; for MIC: VRE, read-out: Minimum Inhibitory Concentration for Bacterial Growth, VRE
Method: as §1

[5] = tested on: E. faecium clinical isolate; test: Inhibition of bacterial growth (MIC), Efcm; type: cell-based; conditions: 16 to 18 hours, 37° C.; for MIC: Enterococcus faecium, read-out: Minimum Inhibitory Concentration for Bacterial Growth, Efcm
Method: as §1

[6] = tested on: Staphylococcus aureus strain IP 8; test: Inhibition of bacterial growth (MIC), Sa; type: cell-based; conditions: 37° C.; for MIC: IP8, 16 to 18 hours, read-out: Minimum Inhibitory Concentration for Bacterial Growth, Sa
Method: as §1

B. subtilis pol IIIE [7] = molecular target: T2, B. subtilis pol IIIE (Bacillus subtilis, UniProt O34623); test: DNA polymerase assay, B. subtilis pol IIIE; type: biochemical
T2 construct: made in house
T2 sequence (O34623 whole entry): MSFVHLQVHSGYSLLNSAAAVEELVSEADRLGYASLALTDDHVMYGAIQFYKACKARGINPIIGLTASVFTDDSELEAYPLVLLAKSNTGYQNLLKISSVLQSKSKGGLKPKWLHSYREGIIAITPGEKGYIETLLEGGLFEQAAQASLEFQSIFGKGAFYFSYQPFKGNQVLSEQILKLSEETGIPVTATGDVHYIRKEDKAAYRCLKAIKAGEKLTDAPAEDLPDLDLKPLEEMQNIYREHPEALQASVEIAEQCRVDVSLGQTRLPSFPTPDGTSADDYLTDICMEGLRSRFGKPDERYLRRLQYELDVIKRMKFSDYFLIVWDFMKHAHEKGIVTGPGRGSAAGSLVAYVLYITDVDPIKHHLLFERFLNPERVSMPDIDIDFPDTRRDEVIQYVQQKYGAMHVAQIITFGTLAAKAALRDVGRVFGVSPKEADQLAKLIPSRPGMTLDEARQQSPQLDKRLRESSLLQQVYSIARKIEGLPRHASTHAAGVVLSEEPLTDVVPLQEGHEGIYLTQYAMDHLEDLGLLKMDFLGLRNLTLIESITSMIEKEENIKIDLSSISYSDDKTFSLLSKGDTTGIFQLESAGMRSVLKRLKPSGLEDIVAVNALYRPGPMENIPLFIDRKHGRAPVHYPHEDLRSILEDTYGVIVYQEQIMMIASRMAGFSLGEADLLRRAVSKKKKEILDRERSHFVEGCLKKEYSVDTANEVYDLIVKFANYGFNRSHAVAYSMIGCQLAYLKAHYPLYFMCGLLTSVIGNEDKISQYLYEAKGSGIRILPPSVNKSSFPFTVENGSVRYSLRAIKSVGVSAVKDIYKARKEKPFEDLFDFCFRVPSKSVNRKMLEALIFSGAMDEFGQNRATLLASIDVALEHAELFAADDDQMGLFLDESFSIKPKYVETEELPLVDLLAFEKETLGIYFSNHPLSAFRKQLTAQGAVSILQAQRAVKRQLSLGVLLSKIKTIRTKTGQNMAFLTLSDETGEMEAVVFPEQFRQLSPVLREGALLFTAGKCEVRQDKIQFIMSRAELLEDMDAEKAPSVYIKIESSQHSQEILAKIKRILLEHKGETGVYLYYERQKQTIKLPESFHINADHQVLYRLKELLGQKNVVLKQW

B. subtilis pol IIIE [8] = molecular target: T2, B. subtilis pol IIIE; test: DNA polymerase assay, B. subtilis pol IIIE; type: biochemical; conditions: for IC50: B. subtilis Pol IIIE IC50, 4 dNTPs, in the presence of all four dNTP substrates
Method: (§2) Recombinant, purified pol IIIC and pol IIIE from Bacillus subtilis were obtained using known methods (Hammond et al., Gene 98: 29-36 (1991), regarding pol IIIC; Barnes et al., J. Bacteriol. 184, 3834-3838 (2002), regarding pol IIIE). Recombinant, purified pol IIIE from Escherichia coli was obtained from a commercial source (Enzyco, Denver, Colo.). The enzyme assays were performed in 96-well plate format using the same assay mix for all three enzymes. Each 25 μL assay contained 30 mM Tris, pH 7.5, 10 mM magnesium acetate, 4 mM dithiothreitol, 20% glycerol, with 10 μM dATP, dCTP, dGTP and dTTP (3H-labelled at 1.44 Ci/mmole) and 0.4 mg/mL activated calf thymus DNA as substrates. Dilutions of compounds were added to the plate in 1% DMSO (1 μL/well). Assays were initiated by the addition of 0.025 to 0.06 units of enzyme (1 unit is the amount required to incorporate 250 pmoles of [^3H] dTMP in a standard assay), incubated for 10 min at 30° C. and terminated by the addition of 200 μL of cold 10% trichloroacetic acid, 10 mM sodium pyrophosphate. Precipitated labeled DNA was collected on glass fiber filter plates that had been pre-wet with ice cold 1 M HCl, 100 mM sodium pyrophosphate. The plates were washed with the HCl solution followed by ice cold 90% ethanol and then dried and counted in a liquid scintillation counter. The calculated IC50 is the concentration needed to inhibit 50% of the DNA polymerase activity in the presence of all four dNTP substrates. In addition, percent inhibition values are calculated as the percent reduction in the activity of a DMSO (diluent) control.

[9] = tested on: Enterococcus faecalis strain 29212; test: Inhibition of bacterial growth (MIC), Efcl; type: cell-based; conditions: 16 to 18 hours, 37° C.; for MIC: read-out: Minimum Inhibitory Concentration for Bacterial Growth, Efcl
Method: as §1

[10] = tested on: Escherichia coli strain J53; test: Inhibition of bacterial growth (MIC), Ec; type: cell-based; conditions: 16 to 18 hours, 37° C.; for MIC: read-out: Minimum Inhibitory Concentration for Bacterial Growth, Ec
Method: as §1

E. coli pol IIIE = molecular target: T3, E. coli pol IIIE (Escherichia coli, UniProt P10443); test: DNA polymerase assay, E. coli pol IIIE; type: biochemical; conditions: 80 μg/mL (190-260 μM) final concentration, all four dNTPs
T3 construct: purchased Enzyco, Denver, Colo
T3 sequence (P10443 whole entry): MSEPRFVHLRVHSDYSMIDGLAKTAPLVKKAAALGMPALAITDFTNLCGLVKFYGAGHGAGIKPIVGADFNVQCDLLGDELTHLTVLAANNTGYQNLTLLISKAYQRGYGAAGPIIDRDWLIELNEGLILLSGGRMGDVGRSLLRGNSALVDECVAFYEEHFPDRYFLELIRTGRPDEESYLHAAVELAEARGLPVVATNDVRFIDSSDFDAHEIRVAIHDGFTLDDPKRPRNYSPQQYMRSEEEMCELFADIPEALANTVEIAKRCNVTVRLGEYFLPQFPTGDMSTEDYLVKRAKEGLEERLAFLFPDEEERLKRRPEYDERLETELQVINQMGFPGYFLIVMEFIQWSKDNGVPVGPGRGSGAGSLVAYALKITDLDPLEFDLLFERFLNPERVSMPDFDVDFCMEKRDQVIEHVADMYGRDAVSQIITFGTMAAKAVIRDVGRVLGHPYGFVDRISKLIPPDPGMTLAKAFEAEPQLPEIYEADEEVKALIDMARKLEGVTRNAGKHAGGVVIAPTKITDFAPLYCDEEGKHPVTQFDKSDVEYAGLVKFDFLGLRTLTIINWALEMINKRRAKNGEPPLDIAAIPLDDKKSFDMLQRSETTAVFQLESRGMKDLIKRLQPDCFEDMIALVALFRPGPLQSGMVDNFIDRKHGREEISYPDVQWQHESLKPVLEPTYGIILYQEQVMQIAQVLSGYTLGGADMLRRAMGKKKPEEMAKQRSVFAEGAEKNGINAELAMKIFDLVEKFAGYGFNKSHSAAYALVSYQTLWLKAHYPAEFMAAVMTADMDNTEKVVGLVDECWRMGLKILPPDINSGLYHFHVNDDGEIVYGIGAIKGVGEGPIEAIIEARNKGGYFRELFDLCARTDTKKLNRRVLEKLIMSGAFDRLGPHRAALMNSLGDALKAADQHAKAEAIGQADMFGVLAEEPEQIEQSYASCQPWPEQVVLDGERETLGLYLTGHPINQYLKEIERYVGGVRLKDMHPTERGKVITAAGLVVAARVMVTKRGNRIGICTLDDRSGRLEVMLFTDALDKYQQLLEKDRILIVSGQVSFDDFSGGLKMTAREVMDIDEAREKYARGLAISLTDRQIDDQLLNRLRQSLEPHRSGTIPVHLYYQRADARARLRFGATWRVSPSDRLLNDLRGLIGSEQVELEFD
Method: as §2

B. subtilis pol IIIC [11] = molecular target: T1, B. subtilis pol IIIC; test: Classical enzyme kinetic analyses (Lineweaver-Burk) with pol IIIC; type: biochemical; conditions: variable substrate dGTP; Compound 17 at 0, 20, 60 μM; HB-EMAU at 0, 1.6, 4.8 μM
Method: The variable substrate in the experiments for FIGS. 1A and 1B was dGTP. See text for details.
Classical enzyme kinetic analyses were performed with Compound 17 and pol IIIC in which reaction velocity was measured as a function of each substrate (dGTP) concentration at several inhibitor concentrations (0, 20, and 60 μM). The results are graphed in a double reciprocal plot by the method of Lineweaver and Burk in FIG. 1A and show the effect of varying dGTP.
Compounds of the anilinouracil (AU) family, classical DNA polymerase inhibitors, inhibit pol IIIC strictly by “competitive” inhibition. An example is shown in the double reciprocal plot in FIG. 1B for the compound N3-hydroxybutyl 6-(3′-ethyl-4′-methylanilino) uracil (HB-EMAU), tested at 0, 1.6, and 4.8 μM. Such AU compounds compete with the dGTP substrate for binding to the enzyme (Clements et al., J. Biol. Chem. 250, 522-526 (1975)). “Noncompetive” inhibitors are exemplified by the class of HIV reverse transcriptase inhibitors, 4,5,6,7-tetrahydro-5-methylimidazo[4,5,1-jk][1,4]benzodiazepin-2(1H)-one (TIBO), i.e., TIBO compounds bind a site adjacent to the active site (Spence et al., Science 267, 988-993 (1995)). In contrast, the data in FIG. 1A clearly indicate that Compound 17, a pyrazole carboxylic acid hydrazide, inhibits pol IIIC by an “uncompetitive” mechanism.

[12] = 80 μg/mL (190-260 μM) final concentration, all four dNTPs
[13] = B. subtilis Pol IIIC IC50, 4 dNTPs, in the presence of all four dNTP substrates
[14] = B. subtilis Pol IIIC IC50, −dATP, in the absence of dATP
[15] = B. subtilis Pol IIIC IC50, −dCTP, in the absence of dCTP
[16] = B. subtilis Pol IIIC IC50, −dGTP, in the absence of dGTP
[17] = B. subtilis Pol IIIE IC50, −dATP, in the absence of dATP
[18] = B. subtilis Pol IIIE IC50, −dCTP, in the absence of dCTP
[19] = B. subtilis Pol IIIE IC50, −dGTP, in the absence of dGTP

Row | Compound | MIC [1] [µg/mL] | inhibition at 80 µg/mL (B. subtilis pol IIIC [2]; [12]) [%] | IC50 (B. subtilis pol IIIC [2]; [13]) [µM] | IC50 (B. subtilis pol IIIC [2]; [14]) [µM] | IC50 (B. subtilis pol IIIC [2]; [15]) [µM] | IC50 (B. subtilis pol IIIC [2]; [16]) [µM] | MIC [3] [µg/mL] | MIC (S. aureus Smith strain) [µg/mL] | Inhibition of bacterial growth, result in words (rank of MIC values) (test strains of bacteria) | MIC [4] [µg/mL] | MIC [5] [µg/mL] | MIC [6] [µg/mL] | IC50 (B. subtilis pol IIIE [7]; [17]) [µM] | IC50 (B. subtilis pol IIIE [7]; [18]) [µM] | IC50 (B. subtilis pol IIIE [7]; [19]) [µM] | IC50 (B. subtilis pol IIIE [8]) [µM] | MIC [9] [µg/mL] | MIC [10] [µg/mL] | further results
1 | COc1ccc(-c2cc(C(=O)NN=Cc3ccc(OC)c(OC)c3)[nH]n2)cc1 [Compound 18] | 2.5 (≈ 6.57 µM) | > 20 | 912 | 23 | 6.5 | 5.5 | 10 (≈ 26.3 µM) | 5 (≈ 13.1 µM) | third place | 20 (≈ 52.6 µM) | 20 (≈ 52.6 µM) | 5 (≈ 13.1 µM) | 345 | > 1000 | > 1000 | 278 | 40 (≈ 105 µM) | > 80 | inhibition at 80 µg/mL (B. subtilis pol IIIE [8]; 80 μg/mL (190-260 μM) final concentration, all four dNTPs, read-out: Percent Enzymatic Inhibition B. subtilis pol IIIE): > 20%
2 | COc1cc(C=NNC(=O)c2cc(-c3ccccc3)n[nH]2)cc(OC)c1OC [Compound 1] | 3 (≈ 7.89 µM) | 14.3 | 188 | 10 | 44 | 14 | 10 (≈ 26.3 µM) | 5 (≈ 13.1 µM) | second | 20 (≈ 52.6 µM) | 20 (≈ 52.6 µM) | 3 (≈ 7.89 µM) | 75 | 62 | 51 | 166 | 10 (≈ 26.3 µM) | > 80 | inhibition at 80 µg/mL (E. coli pol IIIE; read-out: Percent Enzymatic Inhibition E. coli pol IIIE): 0.4%
3 | CCc1cc(Nc2cc(=O)n(CCCCO)c(=O)[nH]2)ccc1C [HB-EMAU, N3-hydroxybutyl 6-(3′-ethyl-4′-methylanilino) uracil, reference compound] | – | – | – | – | – | – | – | – | – | – | – | – | – | – | – | – | – | – | Mechanism of inhibition of pol IIIC (double reciprocal plot) (B. subtilis pol IIIC [11]): competitive inhibition mechanism
4 | CCOc1cccc(-c2cc(C(=O)NN=Cc3cccc(OC)c3O)[nH]n2)c1 [Compound 7] | – | – | – | – | – | – | – | – | able to inhibit growth | – | – | – | – | – | – | – | – | – | Minimum Inhibitory Concentration for Bacterial Growth, Bs [1]: 80 µg/mL; Percent Enzymatic Inhibition B. subtilis pol IIIC (B. subtilis pol IIIC [2]; [12]): not sufficient to show a significant inhibition; also recorded: Inactive; Minimum Inhibitory Concentration for Bacterial Growth, MRSA [3]: 30 µg/mL; Minimum Inhibitory Concentration for Bacterial Growth, Sm (S. aureus Smith strain): 40 µg/mL; Minimum Inhibitory Concentration for Bacterial Growth, VRE [4]: >80 µg/mL; Minimum Inhibitory Concentration for Bacterial Growth, Efcm [5]: >80 µg/mL; Minimum Inhibitory Concentration for Bacterial Growth, Sa ([6]; 16 to 18 hours): 30 µg/mL; Percent Enzymatic Inhibition B. subtilis pol IIIE (B. subtilis pol IIIE [8]; [12]): not sufficient to show a significant inhibition; also recorded: Inactive; Percent Enzymatic Inhibition E. coli pol IIIE (E. coli pol IIIE): not sufficient to show a significant inhibition; also recorded: Inactive; Minimum Inhibitory Concentration for Bacterial Growth, Efcl [9]: >80 µg/mL; Minimum Inhibitory Concentration for Bacterial Growth, Ec [10]: >80 µg/mL
